This test has as its system human non-small cell lung adenocarcinoma cell line H2087—polypeptide FLLGNLFFV (SEQ ID NO:1). The test is described as follows: Lentivirus-infected DCs vaccine in subcutaneous tumor-modeled mice. Particulars: DCs infected with lentivirus expressing the polypeptide, vs lentivirus expressing wild-type polypeptide; FIG. 7. The format is in vivo, NOD/SCID mice. The text has this: In the presence of plasmids pSPAX2 and pMD2G, such seven lentiviral vectors each were used to co-transfect 293T cells for packaging lentivirus, thus obtaining lentivirus expressing the wild-type polypeptide (depicted in […], SEQ ID NO:5), lentivirus expressing the mutant polypeptide (depicted in […], SEQ ID NO:1), lentivirus expressing the mutant polypeptide's variant (depicted in […], SEQ ID NO:2), lentivirus expressing the mutant polypeptide's variant (depicted in […], SEQ ID NO:3), and lentivirus expressing the mutant polypeptide's variant (depicted in […], SEQ ID NO:4), respectively.
The human non-small cell lung adenocarcinoma cell line NCI-H2087 which is HLA-A*0201 positive was purchased from ATCC (Cat. No.: CRL-5922). The cell line NCI-H2087 was incubated in the Dulbecco's Modified Eagle Medium (DMEM) containing 10% fetal calf serum, 100 U/mL penicillin and 100 U/mL streptomycin in an incubator under 37° C. and 5% CO2, and subsequently infected with the lentivirus expressing the mutant polypeptide (depicted in […], SEQ ID NO:1) as prepared in 6.1. Afterwards, the infected cells were incubated with the Puromycin antibiotic for a certain duration to screen out those viable infected cells, i.e., obtaining the human non-small cell lung adenocarcinoma cell line H2087 which expresses the mutant polypeptide (depicted in […], SEQ ID NO:1) and named as the human non-small cell lung adenocarcinoma cell line H2087—polypeptide […] (SEQ ID NO:1).
After isolated with Ficoll solution from 600 to 900 ml anticoagulant peripheral blood from a healthy volunteer, the collected PBMCs in a concentration of 2×10^7 cells/0.5 ml were intraperitoneally injected into each of 300 NOD SCID mice without immune leakage, so as to reconstruct a human immune system in the NOD SCID mice, with the mice after 4 weeks selected for subsequent inoculation of the human non-small cell lung adenocarcinoma cell line H2087—polypeptide […] obtained in 6.2.
The human non-small cell lung adenocarcinoma cell line H2087—polypeptide […] (SEQ ID NO:1) obtained in 6.2 was incubated in DMEM medium containing 10% fetal calf serum, 100 U/mL penicillin and 100 U/mL streptomycin in an incubator under 37° C. and 5% CO2, and then the cells were centrifuged at 3000 rpm for collection. The collected cells were washed with sterile physiological saline three times, and then diluted appropriately. To 40 μl tumor cell suspension, 10 μl 0.4% […] was added for staining, subsequently the tumor cell suspension in a concentration of 1×10^8 cells/ml was prepared after counting under microscope. 100 μl of the tumor cell suspension was inoculated into each of the NOD/SCID mice by subcutaneous injection at 4 weeks post immune reconstruction in 6.3, with daily observation of the presence/absence of infection at inoculation sites, the increase/decrease of tumor size (in the case of presence of a tumor), and measurement of the major axis (a) and the minor axis (b) of a tumor by a vernier caliper every 2 or 3 days (where the tumor size=a×b×b/2). After 7 days from inoculation, a tumor in a size of rice grain was touchable at the inoculation site. After that, the subcutaneous tumor-modeled NOD/SCID mice (modeled with H2087—polypeptide […] (SEQ ID NO:1)) were treated with a polypeptide+complete Freund's adjuvant vaccine, a polypeptide+DCs vaccine, a lentivirus-infected DCs vaccine and a DC-CTL vaccine respectively, with the tumor size and mouse survival rate observed and recorded every 2 days.
Peripheral blood mononuclear cells (PBMCs) in 100 to 150 mL anticoagulant peripheral blood obtained from a healthy volunteer were isolated with Ficoll solution. […]

Take FLLGNLFFL: the Mouse survival period entry is listed as “prolonging mouse survival period effectively” and the Tumor growth result was “inhibiting tumor growth”.
On to FLLGNLFFV, for which the Mouse survival period result is “prolonging mouse survival period effectively” and the Tumor growth result is recorded as “inhibiting tumor growth”.
For FMLGNLFFL, in that order: “prolonging mouse survival period effectively” and “inhibiting tumor growth”.
With FMLGNLFFV, the Mouse survival period result was “prolonging mouse survival period effectively” and the Tumor growth result is “inhibiting tumor growth”.

Source of the values: US11142547B2, “Polypeptide and use thereof” (Genoimmune Therapeutics Co., Ltd., priority 2016, dated 2021).
